{
  "source": "ChEMBL document CHEMBL1201862",
  "about": "“PubChem BioAssay data set” (2004)",
  "assay_in_all_cases": "NCI tumour cell line growth inhibition, 48 h",
  "key": {"786-0": {"system": "786-0"}, "A498": {"system": "A498"}, "A549": {"system": "A549"}, "ACHN": {"system": "ACHN"}, "CAKI-1": {"system": "CAKI-1"}, "CCRF-CEM": {"system": "CCRF-CEM"}, "COLO 205": {"system": "COLO 205"}, "DU-145": {"system": "DU-145"}, "EKVX": {"system": "EKVX"}, "HCC 2998": {"system": "HCC 2998"}, "HCT-116": {"system": "HCT-116"}, "HCT-15": {"system": "HCT-15"}, "HL-60": {"system": "HL-60"}, "HOP-62": {"system": "HOP-62"}, "HOP-92": {"system": "HOP-92"}, "HT-29": {"system": "HT-29"}, "Hs-578T": {"system": "Hs-578T"}, "IGROV-1": {"system": "IGROV-1"}, "K562": {"system": "K562"}, "KM12": {"system": "KM12"}, "LOX IMVI": {"system": "LOX IMVI"}, "M14": {"system": "M14"}, "MCF7": {"system": "MCF7"}, "MDA-MB-231": {"system": "MDA-MB-231"}, "MDA-MB-435": {"system": "MDA-MB-435"}, "MDA-N": {"system": "MDA-N"}, "MOLT-4": {"system": "MOLT-4"}, "Malme-3M": {"system": "Malme-3M"}, "NCI-H226": {"system": "NCI-H226"}, "NCI-H23": {"system": "NCI-H23"}, "NCI-H522": {"system": "NCI-H522"}, "NCI/ADR-RES": {"system": "NCI/ADR-RES"}, "OVCAR-3": {"system": "OVCAR-3"}, "OVCAR-4": {"system": "OVCAR-4"}, "OVCAR-5": {"system": "OVCAR-5"}, "OVCAR-8": {"system": "OVCAR-8"}, "PC-3": {"system": "PC-3"}, "RPMI-8226": {"system": "RPMI-8226"}, "RXF 393": {"system": "RXF 393"}, "SF-268": {"system": "SF-268"}, "SF-295": {"system": "SF-295"}, "SF-539": {"system": "SF-539"}, "SK-MEL-28": {"system": "SK-MEL-28"}, "SK-MEL-2": {"system": "SK-MEL-2"}, "SK-MEL-5": {"system": "SK-MEL-5"}, "SK-OV-3": {"system": "SK-OV-3"}, "SN12C": {"system": "SN12C"}, "SNB-19": {"system": "SNB-19"}, "SNB-75": {"system": "SNB-75"}, "SR": {"system": "SR"}, "SW-620": {"system": "SW-620"}, "T47D": {"system": "T47D"}, "TK-10": {"system": "TK-10"}, "U-251": {"system": "U-251"}, "UACC-257": {"system": "UACC-257"}, "UO-31": {"system": "UO-31"}},
  "note": "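Cells were grown in 96-well plates and exposed to each compound for 48 hours at five concentrations; endpoints were interpolated linearly between bracketing concentrations, or set to the highest concentration if not reached. Here, GI50 denotes the concentration required for 50% inhibition of growth.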 Calls of active or inactive are those of the source. Cut-off read from the data, not from the text of the source: active = GI50 up to about 1.1 µM and inactive = higher.",
  "data": [
    {"smiles": "N/N=C1N=C(Cl)/C(=C/c2ccco2)N\\1", "values": [
      {"measurement": "GI50", "setting": "786-0", "result": "61.5 µM (inactive)"},
      {"measurement": "GI50", "setting": "A498", "result": "> 100 µM (inactive)"},
      {"measurement": "GI50", "setting": "A549", "result": "38 µM (inactive)"},
      {"measurement": "GI50", "setting": "ACHN", "result": "50.4 µM (inactive)"},
      {"measurement": "GI50", "setting": "CAKI-1", "result": "48.6 µM (inactive)"},
      {"measurement": "GI50", "setting": "CCRF-CEM", "result": "31.4 µM (inactive)"},
      {"measurement": "GI50", "setting": "COLO 205", "result": "43.1 µM (inactive)"},
      {"measurement": "GI50", "setting": "DU-145", "result": "50.4 µM (inactive)"},
      {"measurement": "GI50", "setting": "EKVX", "result": "> 100 µM (inactive)"},
      {"measurement": "GI50", "setting": "HCC 2998", "result": "27.6 µM (inactive)"},
      {"measurement": "GI50", "setting": "HCT-116", "result": "36.5 µM (inactive)"},
      {"measurement": "GI50", "setting": "HCT-15", "result": 31.5, "unit": "µM"},
      {"measurement": "GI50", "setting": "HL-60", "result": "21.9 µM (inactive)"},
      {"measurement": "GI50", "setting": "HOP-62", "result": "59.2 µM (inactive)"},
      {"measurement": "GI50", "setting": "HOP-92", "result": "47.2 µM (inactive)"},
      {"measurement": "GI50", "setting": "HT-29", "result": "34.9 µM (inactive)"},
      {"measurement": "GI50", "setting": "Hs-578T", "result": "41.3 µM (inactive)"},
      {"measurement": "GI50", "setting": "IGROV-1", "result": "42.4 µM (inactive)"},
      {"measurement": "GI50", "setting": "K562", "result": "14.8 µM (inactive)"},
      {"measurement": "GI50", "setting": "KM12", "result": "28.2 µM (inactive)"},
      {"measurement": "GI50", "setting": "LOX IMVI", "result": "27.9 µM (inactive)"},
      {"measurement": "GI50", "setting": "M14", "result": "35.2 µM (inactive)"},
      {"measurement": "GI50", "setting": "MCF7", "result": "56 µM (inactive)"},
      {"measurement": "GI50", "setting": "MDA-MB-231", "result": "> 100 µM (inactive)"},
      {"measurement": "GI50", "setting": "MDA-MB-435", "result": "40.6 µM (inactive)"},
      {"measurement": "GI50", "setting": "MDA-N", "result": "47.8 µM (inactive)"},
      {"measurement": "GI50", "setting": "MOLT-4", "result": "11.9 µM (inactive)"},
      {"measurement": "GI50", "setting": "Malme-3M", "result": "52.5 µM (inactive)"},
      {"measurement": "GI50", "setting": "NCI-H226", "result": "> 100 µM (inactive)"},
      {"measurement": "GI50", "setting": "NCI-H23", "result": "54.8 µM (inactive)"},
      {"measurement": "GI50", "setting": "NCI-H522", "result": "22.7 µM (inactive)"},
      {"measurement": "GI50", "setting": "NCI/ADR-RES", "result": "44.5 µM (inactive)"},
      {"measurement": "GI50", "setting": "OVCAR-3", "result": "28.7 µM (inactive)"},
      {"measurement": "GI50", "setting": "OVCAR-4", "result": "31.6 µM (inactive)"},
      {"measurement": "GI50", "setting": "OVCAR-5", "result": "> 100 µM (inactive)"},
      {"measurement": "GI50", "setting": "OVCAR-8", "result": "44.5 µM (inactive)"},
      {"measurement": "GI50", "setting": "PC-3", "result": "36.7 µM (inactive)"},
      {"measurement": "GI50", "setting": "RPMI-8226", "result": "16.8 µM (inactive)"},
      {"measurement": "GI50", "setting": "RXF 393", "result": "65.2 µM (inactive)"},
      {"measurement": "GI50", "setting": "SF-268", "result": "34.3 µM (inactive)"},
      {"measurement": "GI50", "setting": "SF-295", "result": "38.1 µM (inactive)"},
      {"measurement": "GI50", "setting": "SF-539", "result": "22.4 µM (inactive)"},
      {"measurement": "GI50", "setting": "SK-MEL-28", "result": "60.8 µM (inactive)"},
      {"measurement": "GI50", "setting": "SK-MEL-2", "result": "36.2 µM (inactive)"},
      {"measurement": "GI50", "setting": "SK-MEL-5", "result": "34 µM (inactive)"},
      {"measurement": "GI50", "setting": "SK-OV-3", "result": "76 µM (inactive)"},
      {"measurement": "GI50", "setting": "SN12C", "result": "67.1 µM (inactive)"},
      {"measurement": "GI50", "setting": "SNB-19", "result": "50.5 µM (inactive)"},
      {"measurement": "GI50", "setting": "SNB-75", "result": "32.7 µM (inactive)"},
      {"measurement": "GI50", "setting": "SR", "result": "25.8 µM (inactive)"},
      {"measurement": "GI50", "setting": "SW-620", "result": "41.5 µM (inactive)"},
      {"measurement": "GI50", "setting": "T47D", "result": "40.4 µM (inactive)"},
      {"measurement": "GI50", "setting": "TK-10", "result": "71.9 µM (inactive)"},
      {"measurement": "GI50", "setting": "U-251", "result": "47.9 µM (inactive)"},
      {"measurement": "GI50", "setting": "UACC-257", "result": "52.8 µM (inactive)"},
      {"measurement": "GI50", "setting": "UO-31", "result": "43.1 µM (inactive)"}
    ]}
  ]
}
